{"source": "patent US20200064357A1", "about": "“METHODS FOR DETERMINING AND MONITORING GASTROINTESTINAL INFLAMMATION” (Protagonist Therapeutics, Inc., priority 2016, published 2020)", "system": "Sprague-Dawley rats", "experiment": "Protein biomarkers in feces, TNBS rat colitis model, ELISA (Example E2)", "assay_type": "in vivo", "conditions": "31 mg/kg/day, normalized to total protein, vs vehicle", "method": "The animals were grouped into sham, vehicle, and Peptide 993 treatment at 31 mg/kg/day. Feces were collected from the distal colon of rats and were immediately frozen at the time of necropsy. The feces samples were weighed and homogenized in extraction buffer (PBS pH 7.4 containing Pierce Protease Inhibitors, 3× volume:weight). The samples were incubated on ice for 90 minutes, with intermittent vortexing for complete homogenization. After centrifugation at 3000 g at 4 C, the homogenates were transferred to fresh tubes and subjected to another centrifugation at 14000 g at 4 C. The cleared supernatants were saved in multiple aliquots and stored at −80 C until analysis.\nThe total protein in each sample was quantified using BCA assay. LCN2, MPO, and MMP-9 protein concentration in the feces samples were analysed using commercially available rat ELISA kits. For LCN2, the samples were diluted at different ratios with assay dilution buffer to capture the large variation in concentration amongst the different treatment groups. The dilution ratios used were 1:20 (sham), 1:200, 1:1000, 1:2000, and 1:4000 (vehicle and Peptide 993).\nThe concentration of LCN2 was normalized to the total protein measured for the sample. […] Statistical analysis was performed using 1-Way-ANOVA with Dunnetts's multiple comparison.\nFecal homogenates were analyzed for Myeloperoxidase (MPO) concentration using the Rat MPO ELISA kit (Catalog # HK105, Hycult biotech). The samples were used at dilutions ranging from 1:20 to 1:1000, to ensure that the measurements were within the range and sensitivity of the kit. […] A linear equation was used to fit the Standard Curve and the fitting parameters were used to calculate the concentration of MPO. The concentration of MPO for each sample was normalized to the total protein measured for the sample as described above. […] Statistical analyses were performed using 1-Way-ANOVA with Dunnetts's multiple comparison.", "note": "Entries after “also recorded” stand apart in the source; their conditions may differ.", "data": [{"smiles": "CC(=O)NC(CCCNC(=N)N)C(=O)NC1CCSCC(C(=O)NC(Cc2ccc(OCCN)cc2)C(=O)NC(Cc2ccc3ccccc3c2)C(=O)NC2(C(=O)NC(CCC(=O)O)C(=O)NC(CC(N)=O)C(=O)NC(CC(N)=O)C(N)=O)CCOCC2)NC(=O)C(CCC(N)=O)NC(=O)C(Cc2c[nH]c3ccccc23)NC(=O)C(C(C)O)NC(=O)C(CCC(N)=O)NC1=O", "note": "(stereo not drawn) [Peptide 993, Ac-[(D)-Arg]-cyclo[[Abu]-QTWQC]-[Phe[4-(2-aminoethoxy)]]-[2-Nal]-[4-amino-4-carboxy-tetrahydropyran]-ENN-NH2]", "values": [{"measurement": "fecal LCN2 concentration", "value": "statistically significant decrease; also recorded: stastically significant decrease"}, {"measurement": "fecal MMP-9 concentration", "value": "stastically significant decrease"}, {"measurement": "fecal MPO concentration", "value": "statistically significant decrease; also recorded: stastically significant decrease"}]}]}
